Assay results published in patent publication US20260263624A1, “COMBINATION OF ANTIBODY-DRUG CONJUGATE AND CANCER THERAPY, AND USE THEREOF” (GENEQUANTUM HEALTHCARE (SUZHOU) CO., LTD., priority 2023, published 2026).

Columns and labels:
[1] = test system: human breast cancer HER2 IHC 3+ PDX model; experiment: In vivo efficacy of GQ01 with TKIs in human breast cancer PDX model (Example 1); set-up: species or system NOD SCID mice; settings: GQ01 5 mg/kg Q3W×2, combination 5 + 20 mg/kg; for TGI (%): day 77; for Tumor volume (mm^3), Mean ± SEM: end day (day 77)
Procedure: I. The tumor tissues of PDX model were extracted from the tumor-bearing mice and then transferred to culture medium, cut into small fragments, and inoculated subcutaneously at the right flank of SPF female NOD SCID mice aged 6~8 weeks.
II. The tumor diameter was measured with a caliper and the tumor volume was calculated according to the formula V=0.5 a×b^2 (wherein a is the long diameter of the tumor and b is the short diameter of the tumor). […] The tumor volume of mice in each group was measured twice a week.

[2] = test system: human breast cancer HER2 IHC 3+ PDX model (acquired resistance to trastuzumab and pertuzumab, primary resistance to pyrotinib); experiment: In vivo efficacy of GQ01 with TKIs in human breast cancer PDX model resistant to trastuzumab, pertuzumab and pyrotinib (Example 3); set-up: species or system NCG mice; settings: for TGI (%): day 42; for TGI (%) / Tumor volume (mm^3), Mean ± SEM: GQ01 3 mg/kg on day 0 and 5 mg/kg on day 21; for Tumor volume (mm^3), Mean ± SEM: end day (day 42)
Procedure: This model was derived from a patient with Stage III invasive breast cancer, who was assessed as acquired drug resistance to trastuzumab and pertuzumab and primary resistance to pyrotinib based on the history of treatments.
I. The tumor tissues of PDX model were extracted from the tumor-bearing mice and were transferred to culture medium, cut into small fragments, and then inoculated subcutaneously in the right flank of SPF female NCG mice aged 6~8 weeks.
(§1) II. 29 days after inoculation, the tumor diameter was measured with a caliper and the tumor volume was calculated according to the formula V=0.5 a×b2 (wherein a is the long diameter of the tumor and b is the short diameter of the tumor). […] Each group included 6 mice. The day of first administration was defined as day 0. […] The tumor volume of mice in each group was measured twice a week.

[3] = test system: breast cancer HER2 IHC 3+ PDX model (primary resistance to palbociclib); experiment: In vivo efficacy of GQ01 with TKIs in human breast cancer PDX model, primary resistance to palbociclib (Example 2); set-up: species or system NCG mice; settings: GQ01 5 mg/kg on day 0 and day 28; for TGI (%): day 49; for Tumor volume (mm^3), Mean ± SEM: end day (day 49)
Procedure: The model was derived from a patient with Stage III invasive breast cancer who developed metastases to lung and bone after surgery.
I. The tumor tissues of PDX model were extracted from the tumor-bearing mice and were transferred to culture medium, cut into small fragments, and inoculated subcutaneously in the right flank of SPF female NCG mice aged 6~8 weeks.
as §1, with “30” for “29”, “a×b^2” for “a×b2”, “mice” for “mice in each group”

[4] = test system: gastric cancer HER2 IHC 3+ PDX model; experiment: In vivo efficacy of GQ01 with TKIs in human gastric cancer PDX model (Example 4); set-up: species or system Nu/Nu mice; settings: for TGI (%): day 35; for TGI (%) / Tumor volume (mm^3), Mean ± SEM: GQ01 10 mg/kg single dose; for Tumor volume (mm^3), Mean ± SEM: end day (day 35); for PD (response status, share of animals): 6 mice per group, GQ01 10 mg/kg
Procedure: I. The tumor tissues of PDX model were extracted from the tumor-bearing mice and were transferred to RPMI-1640 culture medium, cut into small fragments, and then inoculated subcutaneously in the right flank of SPF female Nu/Nu mice aged 6~8 weeks.
as §1, with “14” for “29”
The response status were calculated based on the diameters or disappearance of target lesions.

[5] = neratinib 20 mg/kg QD×2W+QD×2W, listed as neratinib
[6] = pyrotinib 20 mg/kg QD day 0-13, 21-34, combination 3/5 + 20 mg/kg
[7] = pyrotinib 20 mg/kg QD day 0-13, 21-34, combination 3/5 + 20 mg/kg, listed as pyrotinib
[8] = pyrotinib 20 mg/kg QD day 0-13, 28-41, combination 5 + 20 mg/kg
[9] = pyrotinib 20 mg/kg QD day 0-13, 28-41, combination 5 + 20 mg/kg, listed as pyrotinib
[10] = pyrotinib 20 mg/kg QD 2 weeks, combination 10 + 20 mg/kg
[11] = pyrotinib 20 mg/kg QD 2 weeks, combination 10 + 20 mg/kg, listed as pyrotinib
[12] = pyrotinib 20 mg/kg QD×2W+QD×2W, listed as pyrotinib
[13] = tucatinib 50 mg/kg QD day 0-13, 21-34, combination 3/5 + 50 mg/kg
[14] = tucatinib 50 mg/kg QD day 0-13, 21-34, combination 3/5 + 50 mg/kg, listed as tucatinib
[15] = tucatinib 50 mg/kg QD day 0-13, 28-41, combination 5 + 50 mg/kg
[16] = tucatinib 50 mg/kg QD day 0-13, 28-41, combination 5 + 50 mg/kg, listed as tucatinib
[17] = tucatinib 50 mg/kg QD 2 weeks, combination 10 + 50 mg/kg
[18] = tucatinib 50 mg/kg QD 2 weeks, combination 10 + 50 mg/kg, listed as tucatinib
[19] = tucatinib 20 mg/kg BID×2W+BID×2W
[20] = tucatinib 20 mg/kg BID×2W+BID×2W, listed as tucatinib

CCOc1cc2ncc(C#N)c(Nc3ccc(OCc4ccccn4)c(Cl)c3)c2cc1NC(=O)/C=C/CN(C)C [Neratinib, neratinib]
TGI (%) ([1]; neratinib 20 mg/kg QD×2W+QD×2W): 61.80%
TGI (%) [1, 5]: 61.80%
Tumor volume (mm^3), Mean ± SEM ([1]; neratinib 20 mg/kg QD×2W+QD×2W): 724 ± 114 mm^3
Tumor volume (mm^3), Mean ± SEM [1, 5]: 724 mm^3

CCOc1cc2ncc(C#N)c(Nc3ccc(OCc4ccccn4)c(Cl)c3)c2cc1NC(=O)/C=C/[C@H]1CCCN1C [Pyrotinib, pyrotinib]
TGI (%) [2, 6]: 10.08%
TGI (%) [2, 7]: 10.08%
Tumor volume (mm^3), Mean ± SEM [2, 6]: 1333.21 ± 217.85 mm^3
Tumor volume (mm^3), Mean ± SEM [2, 7]: 1333 mm^3
TGI (%) [3, 8]: −2.65%
TGI (%) [3, 9]: −2.65%
Tumor volume (mm^3), Mean ± SEM [3, 8]: 740.71 ± 146.76 mm^3
Tumor volume (mm^3), Mean ± SEM [3, 9]: 741 mm^3
TGI (%) [4, 10]: 83.09%
TGI (%) [4, 11]: 83.09%
Tumor volume (mm^3), Mean ± SEM [4, 10]: 233.72 ± 39.7 mm^3
Tumor volume (mm^3), Mean ± SEM [4, 11]: 234 mm^3
PD (response status, share of animals) ([4]; pyrotinib arm table, pyrotinib 20 mg/kg, dash = no animal in this class): 83.33%
TGI (%) ([1]; pyrotinib 20 mg/kg QD×2W+QD×2W): 34.93%
TGI (%) [1, 12]: 34.93%
Tumor volume (mm^3), Mean ± SEM ([1]; pyrotinib 20 mg/kg QD×2W+QD×2W): 1108 ± 202 mm^3
Tumor volume (mm^3), Mean ± SEM [1, 12]: 1108 mm^3

Cc1cc(Nc2ncnc3ccc(NC4=NC(C)(C)CO4)cc23)ccc1Oc1ccn2ncnc2c1 [Tucatinib, tucatinib]
TGI (%) [2, 13]: −6.46%
TGI (%) [2, 14]: −6.46%
Tumor volume (mm^3), Mean ± SEM [2, 13]: 1557.77 ± 178.71 mm^3
Tumor volume (mm^3), Mean ± SEM [2, 14]: 1558 mm^3
response of the model to treatment, in words ([2]; tucatinib 50 mg/kg QD day 0-13, 21-34): doesn't respond
TGI (%) [3, 15]: −1.09%
TGI (%) [3, 16]: −1.09%
Tumor volume (mm^3), Mean ± SEM [3, 15]: 732.33 ± 137.71 mm^3
Tumor volume (mm^3), Mean ± SEM [3, 16]: 732 mm^3
TGI (%) [4, 17]: 48.94%
TGI (%) [4, 18]: 48.94%
Tumor volume (mm^3), Mean ± SEM [4, 17]: 399.97 ± 43.87 mm^3
Tumor volume (mm^3), Mean ± SEM [4, 18]: 400 mm^3
PD (response status, share of animals) ([4]; tucatinib arm table, tucatinib 50 mg/kg): 100%
TGI (%) [1, 19]: 51.08%
TGI (%) [1, 20]: 51.08%
Tumor volume (mm^3), Mean ± SEM [1, 19]: 879 ± 216 mm^3
Tumor volume (mm^3), Mean ± SEM [1, 20]: 879 mm^3
